Assay results as given in patent US20070043062A1, “Isoxazoles as peptide deformylase inhibitors” (Arpida A/S, priority 2003, published 2007).

How the values were obtained:
S. aureus, PDF enzyme = target: T1, S. aureus, PDF enzyme (Staphylococcus aureus, UniProt P68826); test: Bacterial peptide deformylase (PDF) assay, colorimetric cell free, f-Met-Ala substrate, TNBS detection at 420 nm; assay type: biochemical; conditions: means of three experiments; 30 minutes at room temperature, pH 7.2; read-out: PDF enzyme inhibitory activity IC50, S. aureus, PDF enzyme
T1 sequence (P68826 1-183): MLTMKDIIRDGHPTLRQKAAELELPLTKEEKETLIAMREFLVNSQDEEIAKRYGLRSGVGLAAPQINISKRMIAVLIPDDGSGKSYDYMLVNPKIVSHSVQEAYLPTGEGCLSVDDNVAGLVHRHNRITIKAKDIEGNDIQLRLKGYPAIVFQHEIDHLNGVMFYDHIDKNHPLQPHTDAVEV
Text: To find inhibitors of Peptide Deformylase (PDF), a colorimetric cell free assay for measuring the enzymatic activity of PDF has been adapted to the microtiter plate format (96 wells). The assay comprises three components, purified PDF, f-Met-Ala as substrate and TNBS as the detecting agent of primary amino groups. The resulting TNP-NH-Met-Ala sulfite complex can be detected at 420 nm. PDF enzymes, containing Fe^2+ as the native metal, are purified and are stabilized by the addition of tris(2-carboxyethyl)phosphine (TCEP).
(§1) The IC50 value of a compound of the invention as a bacterial PDF inhibitor was determined using the following assay.
(§2) Assay buffer: 0.1M MOPS pH was adjusted to 7.2 with NaOH, containing 0.25 M NaCl, 100 μg/mL catalase and 1 mg/mL BSA.
S. aureus (15 mg/ml) 10 μl+990 μl Assay buffer, 0.3 μl per ml enzyme mix.
(§3) Substrate mix: 10 mM f-Met-Ala was made up from 200 mM f-Met-Ala in methanol with assay buffer.
(§4) TNBS solution: Freshly dilute 1 M TNBS stock solution diluted 1:10 with water.
(§5) Buffer C, 0.5 M borate buffer adjusted to pH 9.5 with NaOH.
(§6) Buffer D: 0.2 ml of freshly prepared 0.5 M Na2SO3 was mixed with 9.8 mL of 0.5M NaH2PO4.
(§7) Inhibitor solution: 2 mM Sodium 4-(hydroxymercurio) benzoate in assay buffer.
(§8) Compound mix: Compound of formula I dissolved in DMSO in a 10 mg/mL stock solution. Further dilutions were made in DMSO in the concentration range between 0.05 to 100 mM.
The assay was performed in a 96 Microtiter plate containing test compound. To each well containing test compound mix was added 75 microliter of enzyme mix followed by the addition of 25 microliter of substrate mix. The resulting mix was incubated for 30 minutes at room temperature with shaking. TNBS solution (50 microliter/well) was added and the resulting mixture was incubated for 15 minutes under shaking. Buffer C was then added (20 microliter/well). After incubating at room temperature for 15 minutes under shaking, buffer D was added (50 microliter/well). The optical […] was then measured at 420 nm, thereby determining the IC50 value.

E. coli, PDF enzyme = E. coli, PDF enzyme (Escherichia coli, UniProt P0A6K3); test: Bacterial peptide deformylase (PDF) assay, colorimetric cell free, f-Met-Ala substrate, TNBS detection at 420 nm; assay type: biochemical
Chain of E. coli, PDF enzyme (P0A6K3 whole entry): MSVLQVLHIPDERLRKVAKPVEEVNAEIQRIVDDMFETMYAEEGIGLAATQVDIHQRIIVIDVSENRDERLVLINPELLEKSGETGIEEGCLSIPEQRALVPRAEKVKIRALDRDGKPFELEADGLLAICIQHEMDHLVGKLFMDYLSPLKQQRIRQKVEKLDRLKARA
Method: The assay comprises three components, purified PDF, f-Met-Ala as substrate and TNBS as the detecting agent of primary amino groups. The resulting TNP-NH-Met-Ala sulfite complex can be detected at 420 nm. PDF enzymes, containing Fe^2+ as the native metal, are purified and are stabilized by the addition of tris(2-carboxyethyl)phosphine (TCEP).
as §1, §2
E. coli enzyme (2.5 mg/ml) 10 μl+290 μl Assay buffer, 1 μl per ml enzyme mix.
as §3, §4, §5, §6, §7, §8
The assay was performed in a 96 Microtiter plate containing test compound. […] The optical diffraction was then measured at 420 nm, thereby determining the IC50 value.

| Compound | IC50 (S. aureus, PDF enzyme) [nM] | melting point | IC50 (E. coli, PDF enzyme) [nM] |
| --- | --- | --- | --- |
| O=C(NO)c1cc(CSc2ccccc2C(F)(F)F)on1 [Example 14, 5-(2-Trifluoromethyl-phenylsulfanylmethyl)-isoxazole-3-carboxylic acid hydroxyamide] | 9300 | 140 to 144 °C (dec.) | – |
| Cc1ccc([S+]([O-])Cc2cc(C(=O)NO)no2)cc1 (stereo not shown) [Example 38, 5-(4-Toluenesulfinylmethyl)-isoxazole-3-carboxylic acid hydroxyamide] | 900 | – | – |
| O=C(NO)c1cc(CSc2ccc(C(F)(F)F)cc2)on1 [Example 13, 5-(4-Trifluoromethyl-phenylsulfanylmethyl)-isoxazole-3-carboxylic acid hydroxyamide] | 8700 | 129 °C | – |
| Cc1ccc(S(=O)(=O)Cc2cc(C(=O)NO)no2)cc1 [Example 33, 5-(4-Toluenesulfonylmethyl)-isoxazole-3-carboxylic acid hydroxyamide] | 1400 | – | 11500 |
| CC(C)c1ccccc1SCc1cc(C(=O)NO)no1 [Example 8, 5-(2-Isopropyl-phenylsulfanylmethyl)-isoxazole-3-carboxylic acid hydroxyamide] | 7600 | 121 to 123 °C (dec.) | – |
| O=C(NO)c1cc(CSc2nccc(-c3cccs3)n2)on1 | – | 165 to 168 °C (dec.) | – |
| O=C(NO)c1cc(CS(=O)(=O)c2ccc(Cl)cc2)on1 [Example 34, 5-(4-Chloro-benzenesulfonylmethyl)-isoxazole-3-carboxylic acid hydroxyamide] | 800 | – | – |
| Cc1cc(C)c(SCc2cc(C(=O)NO)no2)c(C)c1 [Example 9, 5-(2,4,6-Trimethyl-phenylsulfanylmethyl)-isoxazole-3-carboxylic acid hydroxyamide] | 37700 | 133 to 135 °C (dec.) | – |
| O=C(NO)c1cc(CSc2cccc(Br)c2)on1 [Example 7, 5-(3-Bromo-phenylsulfanylmethyl)-isoxazole-3-carboxylic acid hydroxyamide] | 2000 | 104 to 105 °C | – |
| O=C(NO)c1cc(CS(=O)(=O)c2cccc(Cl)c2)on1 [Example 35, 5-(3-Chloro-benzenesulfonylmethyl)-isoxazole-3-carboxylic acid hydroxyamide] | 1700 | – | – |
| O=C(NO)c1cc(CSc2ccccc2Cl)on1 [Example 4, 5-(2-Chloro-phenylsulfanylmethyl)-isoxazole-3-carboxylic acid hydroxyamide] | 3800 | 141 to 143 °C (dec.) | – |
| O=C(NO)c1cc(CSc2ccc(F)cc2)on1 [Example 12, 5-(4-Fluoro-phenylsulfanylmethyl)-isoxazole-3-carboxylic acid hydroxyamide] | 1500 | 98 to 99 °C (dec.) | – |
| CC(C)c1ccccc1S(=O)(=O)Cc1cc(C(=O)NO)no1 [Example 36, 5-(2-Isopropyl-benzenesulfonylmethyl)-isoxazole-3-carboxylic acid hydroxyamide] | 3400 | 170 °C (dec.) | – |
| O=C(NO)c1cc(CSCc2cccc(C(F)(F)F)c2)on1 [Example 17, 5-(3-Trifluoromethyl-benzylsulfanylmethyl)-isoxazole-3-carboxylic acid hydroxyamide] | 2200 | 109 to 110 °C | – |
| O=C(NO)c1cc(CSc2ccccc2Br)on1 [Example 6, 5-(2-Bromo-phenylsulfanylmethyl)-isoxazole-3-carboxylic acid hydroxyamide] | 4900 | 135 to 136 °C (dec.) | – |
| O=C(NO)c1cc(CSc2ccc(Cl)cc2)on1 [Example 2, 5-(4-Chloro-phenylsulfanylmethyl)-isoxazole-3-carboxylic acid hydroxyamide] | 1300 | – | – |
| COc1cccc(S(=O)(=O)Cc2cc(C(=O)NO)no2)c1 [Example 37, 5-(3-Methoxy-benzenesulfonylmethyl)-isoxazole-3-carboxylic acid hydroxyamide] | 6500 | – | – |
| O=C(NO)c1cc(CSc2cccc(Cl)c2)on1 [Example 3, 5-(3-Chloro-phenylsulfanylmethyl)-isoxazole-3-carboxylic acid hydroxyamide] | 2300 | 105 to 107 °C (dec.) | – |
| Cc1ccc(SCc2cc(C(=O)NO)no2)cc1 [Example 1, 5-(4-Toluenesulfanylmethyl)-isoxazole-3-carboxylic acid hydroxyamide] | 4000 | 94 to 96 °C (dec.) | – |
| COc1cccc(SCc2cc(C(=O)NO)no2)c1 [Example 11, 5-(3-Methoxy-phenylsulfanylmethyl)-isoxazole-3-carboxylic acid hydroxyamide] | 2200 | 116 °C | – |
| O=C(NO)c1cc(CSc2ccccc2OC(F)(F)F)on1 | – | 108 to 109 °C (dec.) | – |
| CC(c1cc(C(=O)NO)no1)S(=O)(=O)c1ccc(Cl)cc1 (stereo not shown) | – | 162 °C (dec.) | – |
| O=C(NO)c1cc(CSCc2cc3ccccc3s2)on1 [Example 16, 5-(Benzothiophen-2-ylmethylsulfanylmethyl)-isoxazole-3-carboxylic acid hydroxyamide] | 12700 | 143 to 145 °C (dec.) | – |
| O=C(NO)c1cc(CSc2ccc(Cl)c(Cl)c2)on1 [Example 5, 5-(3,4-Dichloro-phenylsulfanylmethyl)-isoxazole-3-carboxylic acid hydroxyamide] | 2000 | 99 to 102 °C (dec.) | – |
